Assays:
Cathepsin S = Cathepsin S (UniProt P25774); assay: Cathepsin enzyme inhibition assay (fluorogenic peptide substrate Z-Val-Val-Arg-AMC), Cathepsin S; type: biochemical, human and mouse; conditions: enzyme 1 nM, substrate 20 μM, pH 6.5; read-out: CatS IC50
Summary of the method: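 Human or mouse cathepsin S (1 nM) was run in 100 mM potassium phosphate pH 6.5 with 5 mM EDTA, 0.001% Triton X-100 and 5 mM DTT. The rise in AMC fluorescence from cleavage was measured, and IC50 values were calculated by standard methods and expressed in μM.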

Cat L = Cat L (UniProt P07711); assay: Cathepsin enzyme inhibition assay (fluorogenic peptide substrate Z-Val-Val-Arg-AMC), Cathepsin L; type: biochemical, human and mouse; conditions: enzyme 1 nM, substrate 20 μM, pH 6.5; read-out: CatL IC50
Summary of the method: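 Cathepsin L at 1 nM was mixed with compound, then started with 20 μM Z-Val-Val-Arg-AMC in pH 6.5 potassium phosphate with EDTA, Triton X-100 and 5 mM DTT. AMC fluorescence (ex 360/em 465 nm) was followed over 20 min. IC50 is given in μM.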

Structure (SMILES) | IC50 (Cathepsin S) [nM] | IC50 (Cat L) [nM]
CC(C)(C)OC(=O)N1C[C@H](S(=O)(=O)c2ccc(Cl)cc2OCC(F)(F)F)C[C@H]1C(=O)NC1(C#N)CC1 [Example 221, (2S,4R)-4-[4-Chloro-2-(2,2,2-trifluoro-ethoxy)-benzenesulfonyl]-2-(1-cyano-cyclopropylcarbamoyl)-pyrrolidine-1-carboxylic acid tert-butyl ester] | 130 | ≥ 25000
CC1(C(=O)N2C[C@H](S(=O)(=O)c3ccc(Cl)cc3Cl)C[C@H]2C(=O)NC2(C#N)CC2)CC1 [Example 222, (2S,4R)-4-(2,4-Dichloro-benzenesulfonyl)-1-(1-methyl-cyclopropanecarbonyl)-pyrrolidine-2-carboxylic acid (1-cyano-cyclopropyl)-amide] | 1.2 | 18600
CC(C)(C)C(=O)N1C[C@H](S(=O)(=O)c2ccc(Cl)cc2Cl)C[C@H]1C(=O)NC1(C#N)CC1 [Example 225, (2S,4R)-4-(2,4-Dichloro-benzenesulfonyl)-1-(2,2-dimethyl-propionyl)-pyrrolidine-2-carboxylic Acid (1-cyano-cyclopropyl)-amide] | 1.2 | 18300
CC(C)C(=O)N1C[C@H](S(=O)(=O)c2ccc(Cl)cc2Cl)C[C@H]1C(=O)NC1(C#N)CC1 [Example 226, (2S,4R)-4-(2,4-Dichloro-benzenesulfonyl)-1-isobutyryl-pyrrolidine-2-carboxylic acid (1-cyano-cyclopropyl)-amide] | 0.6 | 13500
N#CC1(NC(=O)[C@@H]2C[C@@H](S(=O)(=O)c3ccc(Cl)cc3Cl)CN2C(=O)CC(F)(F)F)CC1 [Example 227, (2S,4R)-4-(2,4-Dichloro-benzenesulfonyl)-1-(3,3,3-trifluoro-propionyl)-pyrrolidine-2-carboxylic acid (1-cyano-cyclopropyl)-amide] | 0.6 | 15600
CC(C)CC(=O)N1C[C@H](S(=O)(=O)c2ccc(Cl)cc2Cl)C[C@H]1C(=O)NC1(C#N)CC1 [Example 228, (2S,4R)-4-(2,4-Dichloro-benzenesulfonyl)-1-(3-methyl-butyryl)-pyrrolidine-2-carboxylic acid (1-cyano-cyclopropyl)-amide] | 0.9 | 15400
C[C@H](Oc1ccc(S(=O)(=O)[C@@H]2C[C@@H](C(=O)NC3(C#N)CC3)N(C(=O)OC(C)(C)C)C2)c(Cl)c1)C(F)(F)F [Example 229, (2S,4R)-4-[2-Chloro-4-((S)-2,2,2-trifluoro-1-methyl-ethoxy)-benzenesulfonyl]-2-(1-cyano-cyclopropylcarbamoyl)-pyrrolidine-1-carboxylic acid tert-butyl ester] | 14.7 | 23900
C[C@H](Oc1ccc(S(=O)(=O)[C@H]2CN[C@H](C(=O)NC3(C#N)CC3)C2)c(Cl)c1)C(F)(F)F [Example 230, (2S,4R)-4-[2-Chloro-4-((S)-2,2,2-trifluoro-1-methyl-ethoxy)-benzenesulfonyl]-pyrrolidine-2-carboxylic acid (1-cyano-cyclopropyl)-amide] | 15.3 | 14800
Cc1cc(N2C[C@H](S(=O)(=O)c3ccccc3C(F)(F)F)C[C@H]2C(=O)NC2(C#N)CC2)n(-c2ccn(C(=O)OCC(C)C)c(=O)c2)n1 [Example 231, 4-{5-[(2S,4R)-2-(1-Cyano-cyclopropylcarbamoyl)-4-(2-trifluoromethyl-benzenesulfonyl)-pyrrolidin-1-yl]-3-methyl-pyrazol-1-yl}-2-oxo-2H-pyridine-1-carboxylic acid Isobutyl ester] | 0.5 | > 25000
Cc1cc(N2C[C@H](S(=O)(=O)c3ccccc3C(F)(F)F)C[C@H]2C(=O)NC2(C#N)CC2)n(-c2nccs2)n1 [Example 234, (2S,4R)-1-(5-Methyl-2-thiazol-2-yl-2H-pyrazol-3-yl)-4-(2-trifluoromethyl-benzenesulfonyl)-pyrrolidine-2-carboxylic acid (1-cyano-cyclopropyl)-amide] | 1.57 | ≥ 25000
N#CC1(NC(=O)[C@@H]2C[C@@H](S(=O)(=O)c3ccc(F)cc3F)CN2C(=O)C2(c3ccc(Cl)cc3)CC2)CC1 [Example 235, (2S,4R)-1-[1-(4-Chloro-phenyl)-cyclopropanecarbonyl]-4-(2,4-difluoro-benzenesulfonyl)-pyrrolidine-2-carboxylic acid (1-cyano-cyclopropyl)-amide] | 0.95 | 550
CC(C)CS(=O)(=O)[C@@H]1C[C@@H](C(=O)NC2(C#N)CC2)N(C(=O)C2(c3ccc(Cl)cc3)CC2)C1 [Example 236, (2S,4R)-1-[1-(4-Chloro-phenyl)-cyclopropanecarbonyl]-4-(2-methyl-propane-1-sulfonyl)-pyrrolidine-2-carboxylic acid (1-cyano-cyclopropyl)-amide] | 240 | ≥ 25000

Compounds with a lower IC50 (Cathepsin S), results first:

IC50 (Cathepsin S) [nM] | IC50 (Cat L) [nM] | Structure (SMILES)
0.465 | 21100 | Cc1cc(N2C[C@H](S(=O)(=O)c3ccccc3C(F)(F)F)C[C@H]2C(=O)NC2(C#N)CC2)n(-c2cccc(Cl)c2)n1 [Example 233, (2S,4R)-1-[2-(3-Chloro-phenyl)-5-methyl-2H-pyrazol-3-yl]-4-(2-trifluoromethyl-benzenesulfonyl)-pyrrolidine-2-carboxylic acid (1-cyano-cyclopropyl)-amide]
0.4 | 17800 | CC(C)CC(=O)N1C[C@H](S(=O)(=O)c2ccccc2Cl)C[C@H]1C(=O)NC1(C#N)CC1 [Example 220, (2S,4R)-4-(2-Chloro-benzenesulfonyl)-1-(3-methyl-butyryl)-pyrrolidine-2-carboxylic acid (1-cyano-cyclopropyl)-amide]
0.33 | 31800 | N#CC1(NC(=O)[C@@H]2C[C@@H](S(=O)(=O)c3ccc(OCC(F)(F)F)cc3Cl)CN2C(=O)C2CC2(F)F)CC1 (stereo partly drawn) [Example 241, (2S,4R)-4-[2-Chloro-4-(2,2,2-trifluoro-ethoxy)-benzenesulfonyl]-1-(2,2-difluoro-cyclopropanecarbonyl)-pyrrolidine-2-carboxylic acid (1-cyano-cyclopropyl)-amide]
0.3 | 12600 | N#CC1(NC(=O)[C@@H]2C[C@@H](S(=O)(=O)c3ccccc3Cl)CN2C(=O)CC(F)(F)F)CC1 [Example 219, (2S,4R)-4-(2-Chloro-benzenesulfonyl)-1-(3,3,3-trifluoro-propionyl)-pyrrolidine-2-carboxylic Acid (1-cyano-cyclopropyl)-amide]
0.21 | 12800 | Cc1cc(N2C[C@H](S(=O)(=O)c3ccccc3C(F)(F)F)C[C@H]2C(=O)NC2(C#N)CC2)n(-c2ccc(C(F)(F)F)cc2)n1 [Example 232, (2S,4R)-1-[5-Methyl-2-(4-trifluoromethyl-phenyl)-2H-pyrazol-3-yl]-4-(2-trifluoromethyl-benzenesulfonyl)-pyrrolidine-2-carboxylic acid (1-cyano-cyclopropyl)-amide]
0.2 | 1000 | N#CC1(NC(=O)[C@@H]2C[C@@H](S(=O)(=O)c3ccc(Cl)cc3Cl)CN2C(=O)C2(c3ccccc3)CC2)CC1 [Example 224, (2S,4R)-4-(2,4-Dichloro-benzenesulfonyl)-1-(1-phenyl-cyclopropanecarbonyl)-pyrrolidine-2-carboxylic acid (1-cyano-cyclopropyl)-amide]
0.168 | ≥ 25000 | N#CC1(NC(=O)[C@@H]2C[C@@H](S(=O)(=O)c3ccc(OCC(F)(F)F)cc3C(F)(F)F)CN2C(=O)C2(C(F)(F)F)CC2)CC1 [Example 237, (2S,4R)-4-[4-(2,2,2-Trifluoro-ethoxy)-2-trifluoromethyl-benzenesulfonyl]-1-(1-trifluoromethyl-cyclopropanecarbonyl)-pyrrolidine-2-carboxylic acid (1-cyano-cyclopropyl)-amide]
0.1 | 45 | N#CC1(NC(=O)[C@@H]2C[C@@H](S(=O)(=O)c3ccc(Cl)cc3Cl)CN2C(=O)C2(c3ccc(Cl)cc3)CC2)CC1 [Example 223, (2S,4R)-1-[1-(4-Chloro-phenyl)-cyclopropanecarbonyl]-4-(2,4-dichloro-benzenesulfonyl)-pyrrolidine-2-carboxylic acid (1-cyano-cyclopropyl)-amide]
0.09 | 590 | N#CC1(NC(=O)[C@@H]2C[C@@H](S(=O)(=O)c3ccc(OCC(F)(F)F)cc3Cl)CN2C(=O)C2(c3ccccc3)CC2)CC1 [Example 240, (2S,4R)-4-[2-Chloro-4-(2,2,2-trifluoro-ethoxy)-benzenesulfonyl]-1-(1-phenyl-cyclopropanecarbonyl)-pyrrolidine-2-carboxylic acid (1-cyano-cyclopropyl)-amide]
0.08 | 84 | N#CC1(NC(=O)[C@@H]2C[C@@H](S(=O)(=O)c3ccc(OCC(F)(F)F)cc3Cl)CN2C(=O)C2(c3ccc(Cl)c(Cl)c3)CC2)CC1 [Example 239, (2S,4R)-4-[2-Chloro-4-(2,2,2-trifluoro-ethoxy)-benzenesulfonyl]-1-[1-(3,4-dichloro-phenyl)-cyclopropanecarbonyl]-pyrrolidine-2-carboxylic acid (1-cyano-cyclopropyl)-amide]
0.05 | 20800 | Cn1cc(-c2ccc(S(=O)(=O)[C@@H]3C[C@@H](C(=O)NC4(C#N)CC4)N(C(=O)C4(C(F)(F)F)CC4)C3)c(C(F)(F)F)c2)cn1 [Example 238, (2S,4R)-4-[4-(1-Methyl-1H-pyrazol-4-yl)-2-trifluoromethyl-benzenesulfonyl]-1-(1-trifluoromethyl-cyclopropanecarbonyl)-pyrrolidine-2-carboxylic acid (1-cyano-cyclopropyl)-amide]

Source: patent US8163793B2, “Proline derivatives” (Hoffman-La Roche Inc., priority 2009, dated 2012)
